Results reported in patent US4022900A, “Compositions containing 1,2,3,4-tetrahydroisoquinolines used as hypotensive agents” (Marion Laboratories, Inc., priority 1972, dated 1977).
Counter-ions that a name gives are not always drawn. Like-named read-outs stand apart in the source and are kept apart here.

How the values were obtained:
[1] = test system: systolic blood pressure of deoxycorticosterone acetate hypertensive rats; assay: Hypotensive activity in DCA/saline hypertensive rats (systolic blood pressure, tail cuff); type: in vivo, rat (male, CD strain); conditions: for Lowering of Blood Pressure in Hypertensive rate in mm's of Hg., 1 hr. / Lowering of Blood Pressure in Hypertensive rate in mm's of Hg., 2 hrs. / Lowering of Blood Pressure in Hypertensive rate in mm's of Hg., 4 hrs. / Lowering of Blood Pressure in Hypertensive rate in mm's of Hg., 24 hrs. / compounds which appear most active from Table I: 50 mg/kg intraperitoneal; for Lowering of Blood Pressure in Hypertensive rate in mm's of Hg., 1 hr. / Lowering of Blood Pressure in Hypertensive rate in mm's of Hg., 2 hrs. / Lowering of Blood Pressure in Hypertensive rate in mm's of Hg., 4 hrs. / Lowering of Blood Pressure in Hypertensive rate in mm's of Hg., 24 hrs.: change vs predrug control, six rats; for compounds which appear most active from Table I: qualitative ranking; for Percent Change in Pressure from Control ± S.E., 1 Hour / Percent Change in Pressure from Control ± S.E., 2 Hours / Percent Change in Pressure from Control ± S.E., 4 Hours / Percent Change in Pressure from Control ± S.E., 24 Hours: 50 mg/kg i.p., systolic pressure, * <0.05 significance (Newman-Keuls)
Experimental: Hypertension was produced in weanling (30-day old) male rats of the CD strain obtained from the Charles River Breeding Laboratories (Wilmington, Mass.) by subcutaneously implanting about the dorsal surface of the neck a pellet of deoxycorticosterone acetate (DCA) containing 10 mg DCA in a mixture of Carbowax 4000 (Union Carbide) and Flexowax C light (Glyco Products). Their drinking water was replaced by a 1% sodium chloride solution, a procedure known to facilitate the development of an experimental hypertension, and they had free access to chow. Systolic blood pressure in the caudal arteries was measured indirectly by a pneumatic pulse transducer and a tail pressure cuff on a Physiograph Four recorder (Narco Bio-Systems, Inc., Houston, Texas) in unanesthetized but restrained rats prewarmed to 40° C., 10-15 minutes prior to the determination. The rats were kept at a temperature of 40° C. for all determinations of systolic pressure in an attempt to minimize variations in blood pressure due to marked changes in arterial tone caused by changes in temperature. Blood pressures were measured at intervals in the DCA-treated rats given saline and in non-treated control rats. After 20 days, the mean systolic pressure in the DCA-treated rats was above 150 mm Hg. Hypertension was regarded as being established in the rats at this stage and they were at intervals, usually beginning with the 30th day after DCA-implant in testing for hypotensive activity. Following a series of control blood pressure readings, a dose of 50 mg/kg of the compound under investigation was administered by intraperitoneal injection either in solution or as a suspension in 1% tragacanth solution to groups of six hypertensive rats. Blood pressures were redetermined at 1, 2, 4 and 24 hour periods following injection. At each interval, the systolic pressure was measured a minimum of five times in each rat and the average value was calculated. Mean values for the group were calculated from the individual average values and compared with their predrug control levels. The statistical significance of the changes produced by the compounds, in the doses employed, was tested by the "t" test as well as by an analysis of variance. The reductions in blood pressure obtained with the indicated representative tetrahydroisoquinoline compounds are shown in Table I. The code number for the compound and the example herein showing its preparation are both given in Table I.
(§1) Additional compounds have been tested. The toxicity data for the additional compounds tested, and their identity, is given in the following Table II while the blood pressure lowering activity of the compounds is given in the following Table III. The heading "Example Number" in the tables refers to the working example herein which discloses the compounds and its preparation. The test procedure used for determining the blood pressure lowering activity of the compounds is the same as that previously set forth herein. However, the figures in Table III are expressed as percentage change in blood pressure, rather than in mm of mercury change in blood pressure, as presented in Table I herein.

[2] = Acute toxicity (LD50) in the mouse; conditions: in vivo; for LD50: Table I, unit, species and route not given; for LD50 at 24 h: ip, read-out: Approximate Acute Toxicity (24 hrs.) In the Mouse, LD50
Experimental: 5-(3,4,5-trimethoxybenzamido)-2-methyl-1,2,3,4-tetrahydroisoquinoline (M-20) in mice has an LD-50 of about 125 to 250 mg/kg intraperitoneally.
as §1
Approximate Acute Toxicity (24 hrs.)
(a) Suspension in 1% tragacanth
(b) Solution in distilled water
(c) Solubilized with the aid of dilute acid

[3] = solubilized with the aid of dilute acid

| SMILES | Lowering of Blood Pressure in Hypertensive rate in mm's of Hg., 1 hr. [1] | Lowering of Blood Pressure in Hypertensive rate in mm's of Hg., 2 hrs. [1] | Lowering of Blood Pressure in Hypertensive rate in mm's of Hg., 4 hrs. [1] | Lowering of Blood Pressure in Hypertensive rate in mm's of Hg., 24 hrs. [1] | compounds which appear most active from Table I [1] | LD50 [2] [mg/kg] | Percent Change in Pressure from Control ± S.E., 1 Hour [1] [%] | Percent Change in Pressure from Control ± S.E., 2 Hours [1] [%] | Percent Change in Pressure from Control ± S.E., 4 Hours [1] [%] | Percent Change in Pressure from Control ± S.E., 24 Hours [1] | LD50 at 24 h ([2]; suspension in 1% tragacanth) [mg/kg] | LD50 at 24 h [2, 3] [mg/kg] |
| --- | --- | --- | --- | --- | --- | --- | --- | --- | --- | --- | --- | --- |
| COc1ccc(C(=O)Nc2cccc3c2CCNC3)cc1OC [M-34, 5-(3,4-Dimethoxybenzamido)-1,2,3,4-tetrahydroisoquinoline HCl] | -33±5 mm's of Hg | -28±7 mm's of Hg | -23±4 mm's of Hg | -2±6 mm's of Hg | most active | 500 to 1000 | – | – | – | – | – | – |
| COc1ccc(C(=O)Nc2cccc3c2CCNC3)cc1 [M-44, 5-(4-Methoxybenzamido)-1,2,3,4-tetrahydroisoquinoline HCl] | – | – | – | – | – | – | -8.8 ± 4.8 | -6.5 ± 3.7 | -8.3 ± 2.4 | -6.4 ± 1.3% | 500 to 1000 | – |
| COc1cc(C(=O)Nc2cccc3c2CCNC3)cc(OC)c1OC [M-46, 5-(3,4,5-Trimethoxybenzamido)-1,2,3,4-tetrahydroisoquinoline HCl] | -26±10 mm's of Hg | -25±7 mm's of Hg | -11±4 mm's of Hg | -18±4 mm's of Hg | – | 250 to 500 | – | – | – | – | – | – |
| CCCN1CCc2c(cccc2NC(=O)c2ccc(OC)c(OC)c2)C1 [M-47, 5-(3,4-Dimethoxybenzamido)-2-n-propyl-1,2,3,4-tetrahydroisoquinoline] | -35±7 mm's of Hg | -46±11 mm's of Hg | -41±8 mm's of Hg | -22±4 mm's of Hg | most active | 250 to 500 | – | – | – | – | – | – |
| CCCN1CCc2c(cccc2NC(=O)c2cc(OC)c(OC)c(OC)c2)C1 [M-49, 5-(3,4,5-Trimethoxybenzamido)-2-n-propyl-1,2,3,4-tetrahydroisoquinoline] | -31±6 mm's of Hg | -27±6 mm's of Hg | -21±6 mm's of Hg | -17±6 mm's of Hg | most active | 125 to 250 | – | – | – | – | – | – |
| CCCN1CCc2c(cccc2NC(=O)c2ccc(OC)cc2)C1 [M-50, 5-(4-methoxybenzamido)-2-n-propyl-1,2,3,4-tetrahydroisoquinoline] | – | – | – | – | – | – | -11.3 ± 1.9 | -17.8 ± 1.4 | -10.2 ± 2.8 | -6.2% | – | 125 to 250 |
| CN1CCc2c(cccc2NC(=O)c2ccccc2)C1 [M-54, 5-(benzamido)-2-methyl-1,2,3,4-tetrahydroisoquinoline] | -7±7 mm's of Hg | -14±6 mm's of Hg | -15±6 mm's of Hg | -10±3 mm's of Hg | – | 125 to 250 | – | – | – | – | – | – |
| COc1ccc(C(=O)Nc2cccc3c2CCN(C)C3)cc1OC [M-55, 5-(3,4-Dimethyoxybenzamido)-2-methyl-1,2,3,4-tetrahydroisoquinoline] | -32±5 mm's of Hg | -31±5 mm's of Hg | -32±4 mm's of Hg | -20±4 mm's of Hg | most active | 125 to 250 | – | – | – | – | – | – |
| COc1ccc(C(=O)Nc2cccc3c2CCN(C)C3)cc1 [M-56, 5-(4-Methoxybenzamido)-2-methyl-1,2,3,4-tetrahydroisoquinoline] | -14±5 mm's of Hg | -30±8 mm's of Hg | -19±6 mm's of Hg | -18±4 mm's of Hg | – | 62 to 125 | – | – | – | – | – | – |
| COc1cccc(OC)c1C(=O)Nc1cccc2c1CCN(C)C2 [M-57, 5-(2,6-Dimethoxybenzamido)-2-methyl-1,2,3,4-tetrahydroisoquinoline] | -2±8 mm's of Hg | -7±5 mm's of Hg | -14±10 mm's of Hg | -14±10 mm's of Hg | – | 250 to 500 | – | – | – | – | – | – |
| Cc1cccc(C)c1C(=O)Nc1cccc2c1CCN(C)C2 [M-58, 5-(2,6-Dimethylbenzamido)-2-methyl-1,2,3,4-tetrahydroisoquinoline] | – | – | – | – | – | – | -6.1 ± 1.7 | -2.4 ± 0.6 | -5.2 ± 1.8 | +2.0 ± 2.1% | – | 125 to 250 |
| COc1cc(C(=O)Nc2ccc3c(c2)CN(C)CC3)cc(OC)c1OC [M-59, 7-(3,4,5-Trimethoxybenzamido)-2-methyl-1,2,3,4-tetrahydroisoquinoline] | -60±7 mm's of Hg | -46±7 mm's of Hg | -34±6 mm's of Hg | -18±7 mm's of Hg | most active | 250 to 500 | – | – | – | – | – | – |
| CN1CCc2c(cccc2NC(=O)c2ccccc2Br)C1 [M-60, 5-(2-Bromobenzamido)-2-methyl-1,2,3,4-tetrahydroisoquinoline] | -12±4 mm's of Hg | -10±8 mm's of Hg | -20±3 mm's of Hg | -26±4 mm's of Hg | – | 125 to 250 | – | – | – | – | – | – |
| COc1cc(OC)c(C(=O)Nc2cccc3c2CCN(C)C3)cc1OC [M-61, 5-(2,4,5-Trimethoxybenzamido)-2-methyl-1,2,3,4-tetrahydroisoquinoline] | -15±4 mm's of Hg | -19±5 mm's of Hg | -15±4 mm's of Hg | -6±6 mm's of Hg | – | 68 to 125 | – | – | – | – | – | – |
